Experimental data from ChEMBL document CHEMBL1148590, “Design and synthesis of 3,4-dihydro-1H-[1]-benzothieno[2,3-c]pyran and 3,4-dihydro-1H-pyrano[3,4-b]benzofuran derivatives as non-nucleoside inhibitors of HCV NS5B RNA dependent RNA polymerase” (Bioorg Med Chem Lett, 2006).
Activity calls are given as the source filed them. The rule behind the calls is not given here.

Key:
[1] = molecular target: RNA-directed RNA polymerase (Hepacivirus hominis, UniProt O39930); test: Displacement of [alpha-32P]GTP from recombinant HCV NS5B RNA dependent RNA polymerase
RNA-directed RNA polymerase, sequence (O39930 whole entry): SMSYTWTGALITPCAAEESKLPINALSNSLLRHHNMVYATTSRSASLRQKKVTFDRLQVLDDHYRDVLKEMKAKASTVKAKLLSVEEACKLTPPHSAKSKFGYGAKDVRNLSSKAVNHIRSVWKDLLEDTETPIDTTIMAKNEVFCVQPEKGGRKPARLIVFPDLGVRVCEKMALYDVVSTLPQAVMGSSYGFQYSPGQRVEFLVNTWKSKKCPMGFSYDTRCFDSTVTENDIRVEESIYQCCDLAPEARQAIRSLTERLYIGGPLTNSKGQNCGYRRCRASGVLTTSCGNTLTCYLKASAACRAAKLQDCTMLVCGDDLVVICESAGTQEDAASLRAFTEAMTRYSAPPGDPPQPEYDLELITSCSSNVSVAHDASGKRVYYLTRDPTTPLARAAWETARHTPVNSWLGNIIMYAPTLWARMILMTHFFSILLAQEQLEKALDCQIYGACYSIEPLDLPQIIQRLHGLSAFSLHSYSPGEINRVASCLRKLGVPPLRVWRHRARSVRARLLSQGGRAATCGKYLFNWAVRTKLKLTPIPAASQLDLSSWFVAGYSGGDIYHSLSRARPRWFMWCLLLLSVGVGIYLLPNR

[2] = test system: Huh-7; test: Cytotoxicity against Huh7 cells by MTS metabolic assay; assay type: functional, cell-based; details: Homo sapiens
[3] = molecular target: NS3 (Hepatitis C virus, UniProt A3EZJ3); test: Inhibition of HCV NS3 helicase; parameters: species or system Hepacivirus hominis
NS3, sequence (A3EZJ3 whole entry): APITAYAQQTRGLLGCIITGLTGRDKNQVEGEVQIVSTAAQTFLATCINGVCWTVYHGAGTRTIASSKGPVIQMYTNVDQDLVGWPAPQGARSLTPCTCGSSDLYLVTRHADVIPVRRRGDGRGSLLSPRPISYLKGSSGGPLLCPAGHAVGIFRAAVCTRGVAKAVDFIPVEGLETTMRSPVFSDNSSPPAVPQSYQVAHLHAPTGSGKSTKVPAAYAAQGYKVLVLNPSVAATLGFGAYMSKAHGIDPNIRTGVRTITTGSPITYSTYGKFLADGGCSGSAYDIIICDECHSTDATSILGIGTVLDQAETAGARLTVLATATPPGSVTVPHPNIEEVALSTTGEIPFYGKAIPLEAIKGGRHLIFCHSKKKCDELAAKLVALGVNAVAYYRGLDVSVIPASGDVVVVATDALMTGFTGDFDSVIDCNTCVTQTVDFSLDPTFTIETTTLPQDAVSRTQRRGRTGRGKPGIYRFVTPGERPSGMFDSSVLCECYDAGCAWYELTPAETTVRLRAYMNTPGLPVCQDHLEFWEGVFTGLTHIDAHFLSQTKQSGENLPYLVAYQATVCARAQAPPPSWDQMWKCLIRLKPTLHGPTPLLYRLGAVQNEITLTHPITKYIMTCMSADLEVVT

[4] = molecular target: Human immunodeficiency virus type 1 reverse transcriptase (Human immunodeficiency virus 1, UniProt Q72547); test: Inhibition of HIV reverse transcriptase
[5] = test system: Vero; test: Cytotoxicity against vero cells by MTS metabolic assay; assay type: functional, cell-based; details: Chlorocebus sabaeus
[6] = molecular target: T1, DNA polymerase subunit gamma-1 (Homo sapiens) (UniProt P54098); test: Inhibitory activity against human mitochondrial DNA polymerase gamma upto 50 uM
T1 sequence (whole entry): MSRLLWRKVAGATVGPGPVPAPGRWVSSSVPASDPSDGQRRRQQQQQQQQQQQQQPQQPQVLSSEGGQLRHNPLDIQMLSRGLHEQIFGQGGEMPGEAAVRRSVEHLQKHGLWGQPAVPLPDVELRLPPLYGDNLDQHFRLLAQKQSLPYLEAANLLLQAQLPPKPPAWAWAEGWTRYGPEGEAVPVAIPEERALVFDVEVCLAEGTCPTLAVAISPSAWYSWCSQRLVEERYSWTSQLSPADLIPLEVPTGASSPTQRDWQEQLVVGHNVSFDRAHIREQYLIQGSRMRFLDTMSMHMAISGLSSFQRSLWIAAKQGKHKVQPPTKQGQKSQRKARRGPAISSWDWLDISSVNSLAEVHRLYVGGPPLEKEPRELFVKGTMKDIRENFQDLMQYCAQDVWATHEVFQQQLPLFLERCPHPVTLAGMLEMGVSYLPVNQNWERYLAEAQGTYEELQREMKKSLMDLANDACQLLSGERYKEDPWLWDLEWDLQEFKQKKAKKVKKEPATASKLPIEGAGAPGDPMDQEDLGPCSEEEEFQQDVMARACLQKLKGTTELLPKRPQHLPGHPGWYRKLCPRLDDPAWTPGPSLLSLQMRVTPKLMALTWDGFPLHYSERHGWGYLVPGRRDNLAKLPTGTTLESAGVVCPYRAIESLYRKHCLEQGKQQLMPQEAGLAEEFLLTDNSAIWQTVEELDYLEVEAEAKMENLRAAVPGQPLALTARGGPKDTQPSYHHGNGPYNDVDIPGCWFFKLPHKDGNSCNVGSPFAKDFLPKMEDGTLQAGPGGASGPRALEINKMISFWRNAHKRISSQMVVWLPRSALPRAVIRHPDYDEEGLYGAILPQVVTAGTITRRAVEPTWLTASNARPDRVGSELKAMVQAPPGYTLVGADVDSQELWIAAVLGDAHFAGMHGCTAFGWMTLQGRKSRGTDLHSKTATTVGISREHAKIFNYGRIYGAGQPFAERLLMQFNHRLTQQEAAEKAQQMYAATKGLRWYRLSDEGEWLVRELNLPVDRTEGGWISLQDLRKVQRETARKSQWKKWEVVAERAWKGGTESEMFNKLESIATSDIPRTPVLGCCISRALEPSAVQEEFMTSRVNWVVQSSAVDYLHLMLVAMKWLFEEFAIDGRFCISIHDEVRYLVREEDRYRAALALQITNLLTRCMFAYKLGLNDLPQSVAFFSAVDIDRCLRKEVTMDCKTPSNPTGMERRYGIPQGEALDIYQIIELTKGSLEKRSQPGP

## CCC1(CC(=O)O)OCCc2c1sc1c(Cl)ccc(Cl)c21 (stereo not drawn)
[1]
  IC50: 1900 nM

## CCCC1(CC(=O)O)OCCc2c1sc1c(C)ccc(Br)c21 (stereo not drawn)
[1]
  IC50: 190 nM

## CCCCC1(CC(=O)O)OCCc2c1oc1c(Cl)ccc(Cl)c21 (stereo not drawn)
[1]
  IC50: 4460 nM

## CCC[C@]1(CC(=O)O)OCCc2c1sc1c(C)ccc(C#N)c21
[1]
  IC50: 170 nM

## CCCC1(CC(=O)O)OCCc2c1sc1c(C)cc(F)c(C#N)c21 (stereo not drawn)
[1]
  IC50: 130 nM

## CCC[C@]1(CC(=O)O)OCCc2c1sc1c(C)cc(F)c(C#N)c21
[2]
  IC50: > 75000 nM
[3]
  IC50: > 75000 nM
[4]
  IC50: > 100000 nM
[5]
  IC50: > 75000 nM
[6]
  Activity: inactive
[1]
  IC50: 50 nM

## CCC1(CC(=O)O)OCCc2c1oc1c(Cl)ccc(Cl)c21 (stereo not drawn)
[1]
  IC50: 16300 nM

## CCC[C@@]1(CC(=O)O)OCCc2c1sc1c(C)cc(F)c(C#N)c21
[1]
  IC50: 5360 nM

## CCCC1(CC(=O)O)OCCc2c1sc1c(C)cc(F)cc21 (stereo not drawn)
[1]
  IC50: > 20000 nM

## CC1(CC(=O)O)OCCc2c1oc1c(Cl)ccc(Cl)c21 (stereo not drawn)
[1]
  IC50: > 20000 nM

## CC1(CC(=O)O)OCCc2c1sc1c(Cl)ccc(Cl)c21 (stereo not drawn)
[1]
  IC50: 17600 nM

## CCCC1(CC(=O)O)OCCc2c1sc1ccccc21 (stereo not drawn)
[1]
  IC50: > 20000 nM

## CCCC1(CC(=O)O)OCCc2c1oc1ccccc21 (stereo not drawn)
[1]
  IC50: > 20000 nM

## CCCCC1(CC(=O)O)OCCc2c1sc1c(Cl)ccc(Cl)c21 (stereo not drawn)
[1]
  IC50: 750 nM

## CCCC1(CC(=O)O)OCCc2c1sc1c(C)ccc(C#N)c21 (stereo not drawn)
[1]
  IC50: 320 nM

## CCCC1(CC(=O)O)OCCc2c1oc1c(Cl)ccc(Cl)c21 (stereo not drawn)
[1]
  IC50: 1490 nM

## CCC[C@@]1(CC(=O)O)OCCc2c1sc1c(C)ccc(C#N)c21
[1]
  IC50: 2850 nM

## CCCC1(CC(=O)O)OCCc2c1sc1c(Cl)ccc(Cl)c21 (stereo not drawn)
[1]
  IC50: 140 nM
